In a melting point compilation (Tetko et al.; mined from patent text by program, amines drawn as free bases though some values may be those of a salt):

SMILES | melting point [°C]
CCOC(=O)Cn1ncc(CC)c1O | 77 to 78
COCc1cc(Oc2c(Cl)cc(C(F)(F)F)cc2Cl)n[nH]1 | 141 to 143
Cc1cc(Nc2cc(-c3cnc4cc[nH]c4c3)cn3ccnc23)nn1CCO | 127 to 130
Clc1nc(Cl)c2occc2n1 | 107
Cc1ccc(C(N)=S)c(N)c1 | 172 to 174
COC(=O)c1cc2c(cc1OC)OCO2 | 74 to 75
Cc1cnc2ccc(N)cc2n1 | 170 to 173
O=C(O)c1cc(F)c(F)cc1NC1CC1 | 175 to 176
S=C1NCC(C2=CCC=CC2)N1 (stereo not drawn) | 165 to 167
CCCC1(CC(=O)OC)CCCc2c1[nH]c1cc(Br)ccc21 (stereo not drawn) | 198
Cc1nc2cnc(Nc3ccc(N4CCNCC4)cn3)nc2n(C2CCCC2)c1=O | 221 to 223
CC1(Cc2ccc(O)cc2)OCCO1 | 61 to 64
COC(=O)C1=C(C)Nc2nccn2C1c1ccccn1 (stereo not drawn) | 224 to 226
CC#Cc1cn(C2CC(OC(C)=O)C(COC(C)=O)O2)c(=O)[nH]c1=O (stereo not drawn) | 148 to 149
O=C(CC1CCCCC1)Nc1ccccc1 | 126 to 128
NCC1CCc2[nH]c3cc(Cl)c(Cl)cc3c2C1 (stereo not drawn) | 156 to 158
c1ccc(-c2nc3cc4oc(-c5ccccc5)nc4cc3o2)cc1 | 319 to 323
N#Cc1cc(Br)c(I)c(Br)c1 | 170 to 175
O=C1Nc2ccc(F)c(F)c2C1c1ncnc2c1cnn2C1CCCC1 (stereo not drawn) | > 300
Nc1ccc(-c2noc(-c3cnn4c(C(F)(F)F)cc(-c5cccc(C(F)(F)F)c5)nc34)n2)cn1 | 264
C=CCSc1nnc(Cl)c(C)c1C | 51 to 53
Nc1c(Br)cc(C2=NNC(=O)Cc3cc4c(cc32)OCO4)cc1Br | 162 to 165
CN(C)C(=O)Nc1coc2ccccc2c1=S | 108
CC#CC(C)Oc1cc(N)c(Cl)cc1C(=O)O (stereo not drawn) | 114 to 116
CSc1nnc(Sc2cc(C(C)(C)C)c(O)c(C(C)(C)C)c2)s1 | 144 to 145
CCOC(=O)NNc1ccc(-c2ccc(Br)cc2)nn1 | 190 to 192
N#Cc1c(N)oc2ccccc2c1=O | 315 to 320

SMILES | melting point [°C]
FC(F)(F)c1cccc(-c2ccnc3c(Br)cnn23)c1 | 138 to 140
CCc1nc2c(N)nc3cc(-c4cncc(CO)c4)ccc3c2n1CC(C)(C)O | > 250
CCOC(=O)C(=CNC1CC1)C(=O)c1c(F)c(F)c(F)c(F)c1N(C)C | 122 to 124
CCn1c(OC(C)C)n[nH]c1=O | 69 to 70
CC[C@H](Cc1sccc1Cl)Nc1ccnc(O)c1[N+](=O)[O-] | 150 to 152
Oc1nnc2ccc3ccccc3n12 | 134
COC1CCC2(C)C(=CC(=O)C3C4CCC(=O)C4(C)CCC32)C1 (stereo not drawn) | 227 to 229
Cn1c(-c2ccc(OCC3CO3)cc2)nnc1C(F)(F)F (stereo not drawn) | 104 to 106
Clc1ccc2[nH]c(SCc3nc4ccccc4s3)nc2c1 | 176 to 180
Cc1ccc(S(=O)(=O)OCC2COC(C(F)(F)F)(C(F)(F)F)O2)cc1 (stereo not drawn) | 57 to 58.5
O=C(NO)c1cc2c(Oc3ccc(Cl)cc3)cncc2s1 | 145
Nc1cc(C(F)(F)F)cnc1N | 97 to 99
CCCCN(CCCC)c1ccc(C=Cc2cc(C)c(C=CC3=C(C#N)C(=C(C#N)C#N)OC3(C)C(F)(F)F)cc2C)c(OC)c1 (stereo not drawn) | 205 to 207
CCOC(=O)CCc1cc(C(=O)CCC(=O)O)ccc1OC | 128 to 129
O=C1CCCc2cc(O)cc(O)c21 | 209 to 210
CN1C(=O)C(C)(C)N=C(c2ccccc2F)c2cc(N)cc(Cl)c21 | 169 to 172
Nc1c(N=O)c(=O)n(CC2CC2)c(=O)n1CC1CC1 | 228 to 229
COc1ccc(S(=O)O)cc1 | 173 to 174
CC12CCC(=O)C(CSc3ccccc3)=C1CCC1C2CCC2(C)C1C=CC2(C)O (stereo not drawn) | 147
O=C(O)c1cc2ccsc2cn1 | 246
Oc1ccc2c(-c3ccc(Cl)cc3)noc2c1 | 203
CC1(C)CCc2c(N3CCOCC3)nc3sc4c(NCc5ccccn5)ncnc4c3c2C1 | 218
COc1nc(C)c(C)nc1N(C)C(=O)N1CCN(c2cc([N+](=O)[O-])cc([N+](=O)[O-])c2)CC1 | 133 to 135
CCn1nc(C#N)c(Nc2ccc(Cl)cc2[N+](=O)[O-])n1 | 130 to 132
c1cc(CC[C@H]2CNCCN2)co1 | 112 to 114
CCCc1nc2c(N)nc3cc(-c4cccc(CN)c4)ccc3c2s1 | 168 to 171
O=C1SCCN1Cc1ccccc1 | 50 to 51

More lines, now with the values ahead:

melting point [°C] | SMILES
174 to 175 | O=[N+]([O-])c1ccc(Oc2ccc(N3CCN(c4ccncc4)CC3)cc2)nc1
84 to 85 | COC(=O)C1Oc2ccccc2CC1CO (stereo not drawn)
228 | NS(=O)(=O)c1ccc(-c2cc(-c3nc(-c4ccc(C(F)(F)F)cc4F)cc(C(F)(F)F)n3)ccn2)s1
185 to 188 | Cc1cc(CN2CCN(c3nc(C)c(C(=O)NCc4cccnc4)s3)C2=O)no1
184 to 187 | N=C(NCC1(O)COc2ccccc2OC1)Nc1ccccc1
258 to 263 | N#Cc1ccc(-c2cn(-c3ccc(C#N)cc3)cn2)cc1
190 | CCCCCCCNC(=O)Nc1ccc(N(C)C)cc1C(=O)NC(C)(C)C1CCN(C(c2ccccc2)c2ccccc2)CC1
185 to 187 | COc1cc(N)c(Cl)cc1C(=O)NC1CCN(C)C1 (stereo not drawn)
219 | CC(C)C(=O)N[C@H]1CC[C@H](CCN2CCN(c3nccc4c3CCO4)CC2)CC1
161 | CN1CCC(OC(c2cccc(SCCNc3c(N)c(=O)c3=O)c2)c2nc3ccccc3[nH]2)CC1 (stereo not drawn)
171 to 175 | CNC(=O)c1cccc(Cl)c1Nc1nc(Nc2ccc3c(c2)CCC(N2CCC(N4CCN(C)CC4)CC2)CC3)ncc1Cl (stereo not drawn)
169 | CS(=O)(=O)c1ccc(-c2cc(C(=O)c3ccc(Cl)cc3)sc2N2CCOCC2)cc1
163 to 167 | CCCCNc1nc2cccc(C(=O)OC)c2n1Cc1ccc(-c2ccccc2-c2nnn[nH]2)cc1
73 to 78 | Nc1cccc(C(O)c2cc3c(Oc4ccc(Cl)cc4)cncc3s2)c1 (stereo not drawn)
211 to 216 | Cc1cnn2c(-c3cccc(-c4ccccc4C#N)c3)cnc2n1
181 to 182 | CCOC(=O)Cn1nc(O)c2ccccc21
258 to 259 | COc1ccc(-c2cc(C#N)c(=O)[nH]c2C)cc1
159 to 160 | Cc1cccc2c1C(=O)N1CC[C@H]1C(=O)N2
196 to 199 | c1cnc2[nH]cc(CN3CCN(c4ccc5c(c4)OCO5)CC3)c2c1
98 | O=C(N[C@@H](CNC(=O)c1ccc(C2CC2C(=O)NC2=NCCCN2)s1)C(=O)O)OCc1ccccc1 (stereo partly drawn)
198 to 201 | O=c1c(NCCCN(Cc2ccc(F)cc2)c2ccccn2)c(NCc2ccncc2)c1=O
> 200 | O=C(O)C1CC(=C2CCN(c3ccccc3)C2=O)c2ccc(Cl)cc2N1 (stereo not drawn)
198 to 200 | Cc1cccc2c1C(=O)/C(=C(\N)c1ccccc1)S2
136 to 138 | CN(C)C(=S)SCC(c1cccc2ccccc12)[N+](=O)[O-] (stereo not drawn)
129 to 130 | Cc1oc(-c2ccccc2)nc1COc1cc(COc2ncccc2CC(=O)O)on1

melting point [°C] | SMILES
70 to 72 | CCc1cccc(-c2ccc(S(=O)(=O)N3c4ccccc4CC3C(=O)O)cc2)c1 (stereo not drawn)
54 to 59 | CC(C)(C)OC(=O)NCCC[C@H](NC(=O)OC(C)(C)C)C(=O)NCCCC(c1ccc(F)cc1)c1ccc(F)cc1
195 | CCCCCCCNC(=O)Nc1ccc(N(C)C)cc1C(=O)NCC1CC2CCC(C1)N2C(c1ccccc1)c1ccccc1 (stereo not drawn)
152 to 156 | CC(C)c1ccc2c(c1)c(-c1ccccc1Cl)c(NC(=O)Nc1ccc(F)cc1F)c(=O)n2C
225 to 226 | COc1ccccc1N1CCN(S(=O)(=O)c2ccc(/C=C/C(=O)NO)cc2)CC1
184 to 185 | COc1cc2c3ccc(OC)c(OC)c3n(C(=O)c3ccccc3)c2cc1OC
149 to 153 | CN1C(=O)C(c2ccc(Cl)cc2)S(=O)C1c1cccnc1 (stereo not drawn)
207 to 209 | Nc1ncnc2c1ncn2Cc1oc2ccc(F)cc2c(=O)c1-c1ccccc1
229 to 232 | Nc1ccc2nc3c(nc2c1)OCC1CCCCN31 (stereo not drawn)
116 to 117 | COc1ccc([C@@H](O)[C@@H](N)Cc2ccc(C(F)(F)F)cc2)cc1 (racemic)
243 to 245 | Cn1c(COCCn2cnc3c(N)nc4ccccc4c32)cc2ccccc21
148 to 149 | CC(C)c1cccc(C(C)C)c1NC(=O)N(Cc1ccccc1)[C@H]1CC[C@@H](c2ccccc2)CC1
196 to 198 | Nc1nccc(-c2c[nH]c3nccc(CCc4ccccc4)c23)n1
94 to 96 | CCCc1c(OCCCC(=O)NCCc2cccnc2)ccc(C(C)=O)c1O
213 to 215 | NC(=O)c1cc(-n2c(-c3ccccc3)cc3c2CCc2ccccc2-3)ccc1O
75 to 76 | COc1ccc(C2(C#Cc3cc(C(=O)O)cs3)CCC(=O)CC2)cc1OC1CCCC1
141 to 142 | COc1cccc(N(CCN2CCC(C(=O)c3ccc(F)cc3)CC2)C(=O)c2cccc(N)c2)c1
266 to 268 | O=C(c1ccc(OCC2CC2)c2oc3ccccc3c12)[NH+]([O-])c1ccncc1 (stereo not drawn)
87 to 89 | CCCCCCCC(=O)OCc1ccccc1-c1nc(-c2cccc(OCC)c2)n[nH]1
208 to 210 | CCOC(=O)C1CCN(c2nnc(NCc3ccc(OC)c(Cl)c3)c3cc([N+](=O)[O-])ccc23)CC1
188 to 189 | CC(C)(CO)COc1ccc(NC(=O)c2cc3ccccc3s2)cc1C#N
206 to 208 | CC(C)c1cccc(C(C)C)c1NC(=O)Nc1ccc(-c2ccccc2)nc1-c1ccccc1
202 to 203 | COCc1c(-c2cc(C)no2)ncc2[nH]c3ccc(OCc4ccccc4)cc3c12
216 to 218 | CC(=O)N1CCC2(CC1)CN=C(c1cc3cccc(N(C)S(=O)(=O)c4cccs4)c3[nH]1)S2
